assay: Human HepG2 cell viability assay in 384 well format; format: toxicity, cell-based; design: dose 125 nL, time 70.5 hour; cytotoxicity at 70.5 h: concentration not given beside the values; conditions: HepG2 cells, read-out: Inhibition

| Structure (SMILES) | cytotoxicity at 70.5 h [%] |
| --- | --- |
| CC(=O)NCC(=O)N1CCN(Cc2ccncc2)c2ncccc2C1 | 16.8 |
| c1cc(CN2CCOCC3(CCNCC3)C2)ccn1 | 23 |
| CCS(=O)(=O)NC1CCc2c(ccc(=O)n2CC2CC2)C1 (stereo unspecified) | -7.75 |
| COCC(=O)N1CCCC2(CCN(c3cncnc3)C2=O)C1 (stereo unspecified) | -8.34 |
| Cc1occc1C(=O)N1CCCC2(CCN(c3ccsc3)C2=O)C1 (stereo unspecified) | -6.53 |
| COCC(=O)N1CCCC2(CCN(c3ccccc3)C2=O)C1 (stereo unspecified) | -13.1 |
| COCCC(=O)N1CCC2(CN(Cc3cccc(F)c3)C2)C1 | -7.85 |
| CN1CCN([C@H]2COC[C@@H]3CN(Cc4cccnc4)C[C@@H]32)CC1 | -8.25 |
| CCS(=O)(=O)NCC1Cn2nnc(-c3ccccc3)c2CO1 (stereo unspecified) | -1.57 |
| c1cnc(NCC2Cn3nnc(-c4ccsc4)c3CO2)nc1 (stereo unspecified) | -8.81 |
| c1cnc(NCC2Cn3nnc(-c4ccoc4)c3CO2)nc1 (stereo unspecified) | -13.1 |
| O=C(CO)N1CCCC2(CCN(c3ccsc3)C2=O)C1 (stereo unspecified) | -8.82 |
| Cc1ccc2c(n1)N(CCN(C)C)CCN(C(=O)c1ccco1)C2 | -4.83 |
| CCS(=O)(=O)N1CCn2cc(CN(C)Cc3ccco3)nc2C1 | -2.7 |
| COCCC(=O)N1CC2(CCN(Cc3ccncc3)CC2)C1 | -1.69 |
| O=C(c1cscn1)N1CCc2ncc(Cn3cncn3)n2CC1 | -6.09 |
| O=C(c1ccco1)N1CCn2cc(CN3CCCC3)nc2C1 | -1.74 |
| Cc1ccoc1C(=O)N1CCn2cc(CN3CCCC3)nc2C1 | -4.12 |
| COCCC(=O)N1CC[C@H]2O[C@@H](C)C[C@H]2C1 | -7.16 |
| O=C(c1ccno1)N1CCn2cc(CN3CCCCC3)nc2C1 | -2.37 |
| O=C(c1ccc2[nH]ccc2c1)N1CCn2cc(CN3CCCC3)nc2C1 | -13.7 |
| Cc1cc(N2CCN(C(=O)Cc3ccc4c(c3)OCO4)CC2)cc(C)n1 | -9.94 |

| Structure (SMILES) | cytotoxicity at 70.5 h [%] |
| --- | --- |
| COCCc1ncc(CN2CCC3(CCCN(CC4CC4)C3)C2)cn1 (stereo unspecified) | 0.629 |
| CCCN1C[C@H]2CC[C@@H]1CN(Cc1cccc(O)c1)C2 | -9.57 |
| CNc1ncc(CN(C)C(=O)c2ccc(C3CCCO3)s2)cn1 (stereo unspecified) | -3.31 |
| COc1ncccc1C1CC(=O)NCc2nc3ccccn3c21 (stereo unspecified) | 1.55 |
| CCN(CC)CCCNc1nccc(-c2cn(C)nc2C)n1 | -3.41 |
| CN(C)c1nc2c(c(N(C)Cc3n[nH]c4c3CCCC4)n1)CCNCC2 | -7.02 |
| Cc1cc2ccccc2n1CCC(=O)NCCCc1nnc(N)s1 | 33.9 |
| Cc1nc[nH]c1CN1CCn2nc(CN3Cc4ccccc4C3)cc2C1 | -7.32 |
| Cc1ccccc1C(C(=O)NCc1nc(-c2ncccn2)no1)N(C)C (stereo unspecified) | -6.36 |
| CCN(CC1CCCN(CCc2cccc(OC)c2)C1)C(=O)CSC (stereo unspecified) | -8.89 |
| CCc1ccccc1CN1CCn2nc(CNC(C)=O)cc2C1 | 59.7 |
| O=C1CCC2(CCOC2)CN1Cc1nncn1CCc1ccccc1 (stereo unspecified) | 4.96 |
| CCN1CCC(CC(=O)NCCc2nc(C)cc(C)n2)CC1 | -3.38 |
| N[C@H]1CN(C(=O)c2ccccc2OCc2ccccc2)C[C@@H]1C1CC1 | -11.7 |
| O=C(NC1CCc2ccccc2C1)C1CCN(Cc2ccco2)CC1 (stereo unspecified) | -2.67 |
| Cc1cc(C)cc(CN2CCN(C(=O)C3CCC3)[C@@H]3CS(=O)(=O)C[C@@H]32)c1 | -5.88 |
| O=S(=O)(NCc1ccccc1)Nc1ccc(-n2cncn2)cc1 | -5.87 |
| CCc1nc(CNc2nc3c(s2)c(C)nn3C)cs1 | -3.7 |
| CC(C)=CCN1CCC2(CC1)c1ccccc1[C@@H](N1CCSCC1)[C@@H]2O | -4.97 |
| Cc1cc(CN2CCC(CNC(=O)c3noc4c3CCCC4)C2)[nH]n1 (stereo unspecified) | 13.3 |
| CCCN1CCN(C(=O)c2cccc(C)n2)[C@H]2CS(=O)(=O)C[C@H]21 | 14.2 |
| CCS(=O)(=O)N1CCOC(CCCc2ccccc2)C1 (stereo unspecified) | 5.87 |

| Structure (SMILES) | cytotoxicity at 70.5 h [%] |
| --- | --- |
| CN1[C@H](CO)C[C@H](CNCc2ccc(CO)o2)[C@@H]1c1ccccc1F | -4.51 |
| NCC1CN(C(=O)c2cccc(-n3cccn3)c2)CCO1 (stereo unspecified) | 5.52 |
| O=C(c1cc(-c2ccc(O)cc2)n[nH]1)N1CCCC1c1cccnc1 (stereo unspecified) | 0.428 |
| Cc1cnc(C(=O)N2C[C@H]3CC[C@@H]2CN(S(=O)(=O)N(C)C)C3)cn1 | -7.71 |
| CCCn1cc(S(=O)(=O)N[C@H]2CN(C(C)=O)C[C@@H]2C2CC2)cn1 | -1.84 |
| Cc1ccc(C(C(=O)O)N(C)CCCN2CCOCC2)c(C)c1 (stereo unspecified) | -8.61 |
| CCC[C@@H]1CN(Cc2ccccc2OC(F)(F)F)C[C@H]1NC(C)=O | -20 |
| CCNC(=O)Cc1ccc(-c2cccc3c2CCNC3)cc1 | -17.3 |
| Cc1nnc(SCCNC(=O)c2cc(S(N)(=O)=O)ccc2F)s1 | -5.1 |
| COCc1ncc(CN2CCC3(CCNCC3)CC2)cn1 | -2.36 |
| CCC1CN(C(=O)c2cc(CN(C)CCc3ccccc3)on2)CCO1 (stereo unspecified) | -7.15 |
| CC(C)N(C)S(=O)(=O)c1ccc2c(c1)CCN(C(=O)c1cscn1)C2 | -20.3 |
| O=C(NC1CCCN(c2ncccn2)C1)c1cn2ccccc2n1 (stereo unspecified) | -6.6 |
| Cc1ccc2oc(=O)n(CCC(=O)N3CCC4(CN(C)C(=O)O4)C3)c2c1 (stereo unspecified) | -1.59 |
| Cc1nn(C)c(C)c1-c1ccnc(N2CCCN(CC(C)C)CC2)n1 | 4.01 |
| Cc1nn(C(C)C)c(C)c1CN1CCC(c2cc(C(C)C)n[nH]2)CC1 | -0.772 |
| CCn1ccnc1CN1CCCn2nc(CNC(=O)C3CCC3)cc2C1 | -7.76 |
| Cc1ccncc1C(=O)N1C[C@@H]2CN(c3ncccn3)C[C@]2(C(=O)O)C1 | -5.72 |
| O=C(Cn1ncc(N2CCNCC2)cc1=O)NCCc1ccc(F)cc1 | -3.8 |
| O=C(N1CCOCC1)N1C[C@H]2CC[C@@H]1CN(C1Cc3ccccc3C1)C2 | 5.2 |
| O=C1CN(C(=O)CC2C(=O)NCCN2CC2CCCCC2)CCN1 (stereo unspecified) | 28.9 |
| Cc1nc(CN(C)C(=O)c2cccc(CC3CCNCC3)c2)no1 | 26.4 |

| Structure (SMILES) | cytotoxicity at 70.5 h [%] |
| --- | --- |
| CCCS(=O)(=O)N1CCC2(CCC(=O)N(CCc3ccncc3)C2)CC1 | -9.81 |
| CCN1CCC(c2nnc(CN3CCCC3)n2C2CC2)CC1 | -9.82 |
| COCc1cc(CNC(=O)c2c(O)cccc2O)n[nH]1 | -1.82 |
| CC(=O)N1CC2(CCN(c3ccc4ccccc4n3)CC2)CC1C(=O)O (stereo unspecified) | 4.97 |
| NC(=O)c1cc2c(nc1-c1ccc3c(c1)CCO3)CCC2 | -5.32 |
| O=C(c1cc(=O)n(-c2ccccc2)[nH]1)N1CCOC(C(F)(F)F)C1 (stereo unspecified) | 5.57 |
| CN1CCC(Cc2noc(-c3cn(Cc4ccccc4Cl)nn3)n2)CC1 | 0.52 |
| Cc1cc(CN2CCN(CC3CC3)[C@@H]3CS(=O)(=O)C[C@@H]32)ccc1F | 6.58 |
| Cc1cc(C[C@@H]2COC[C@@H]2NC(=O)CCN2Cc3ccccc3C2)on1 | 11.4 |
| c1cc(CN2CCC(Cc3noc(C4CC4)n3)CC2)c2c(c1)OCO2 | 0.325 |
| O=C(COCc1ccccc1)N1CCCC(OCc2cccnc2)C1 (stereo unspecified) | 15.5 |
| c1csc(CN2CCCN(c3ccc(Cn4ccnc4)cn3)CC2)c1 | -5.7 |
| CC(C)c1nc(CN(C)C(=O)c2ccc3c(c2)OCC(=O)N3)cs1 | -6.75 |
| CC(C)[C@@H]1CN(c2ncc(F)cn2)C[C@H]1NS(=O)(=O)N(C)C | 15.6 |
| CN1CCC(N(C)CCC(=O)N2CCC(Cc3ccc(F)cc3)CC2)C1 (stereo unspecified) | 24.2 |
| Cc1nc(C2CCNCC2)cc(N2CCCC(C(=O)NCCCO)C2)n1 (stereo unspecified) | 10.6 |
| Cc1ccc(C(=O)N2CC[C@H]3[C@@H]2CCC(=O)N3c2ccccc2)cn1 | -12.4 |
| O=C(NCC1CC1)[C@H]1CN(Cc2nccs2)C[C@H]2OCC[C@@H]12 | -9.38 |
| Cc1occc1C(=O)N1CCO[C@H]2[C@H](OCc3ccccn3)CC[C@@H]21 | -7.78 |
| O=C([C@@H]1CN(Cc2nccs2)C[C@H]2OCC[C@H]21)N1CCOCC1 | -7.1 |
| Cc1ncsc1CN1C[C@@H]2COC[C@]2(C(=O)NC(C)C)C1 | -11.1 |
| O=C(c1cscn1)N1CCO[C@H]2[C@@H](Oc3ccccn3)CC[C@@H]21 | -10.4 |

| Structure (SMILES) | cytotoxicity at 70.5 h [%] |
| --- | --- |
| Fc1ccc(N2CCOC3(COCCN(c4ncccn4)C3)C2)cc1 (stereo unspecified) | -6.83 |
| O=C(c1ccoc1)N1CCOC2(COCCN(c3ncccn3)C2)C1 (stereo unspecified) | -7.67 |
| O=C(NC1CC1)[C@@H]1C[C@@H]2CCN(Cc3ccccc3)C[C@@H]2O1 | 25.4 |
| CC(C)NC1CCc2c(ccc(=O)n2CC2CC2)C1 (stereo unspecified) | 4.51 |
| Cc1ncsc1CN1C[C@@H]2COC[C@]2(CNC(=O)c2ccco2)C1 | -10.4 |
| O=C(NC1CC1)[C@@H]1C[C@@H]2CCN(Cc3ccccc3)C[C@H]2O1 | -9.32 |
| O=C([C@H]1CN(Cc2nccs2)C[C@H]2OCC[C@@H]12)N1CCCCO1 | -10.9 |
| CN(Cc1cn2c(n1)CN(C1CCOCC1)CC2)Cc1ccco1 | 24.6 |
| CN(Cc1cn2c(n1)CN(Cc1ccsc1)CC2)Cc1ccco1 | -6.14 |
| Cc1ccc2c(n1)N(CCN(C)C)CCN(C(=O)c1cccs1)C2 | -5.81 |
| Fc1cccc(N2CCCC3(CN(Cc4nccs4)CCO3)C2)c1 (stereo unspecified) | -13.6 |
| O=C(C1CCOC1)N1CCC2(CC1)COCCN(Cc1ccncc1)C2 (stereo unspecified) | -11.2 |
| CN(Cc1cn2c(n1)CN(Cc1nccs1)CC2)Cc1ccco1 | -7.68 |
| CN(Cc1cn2c(n1)CN(CC1CCOC1)CC2)Cc1ccco1 (stereo unspecified) | 1.38 |
| CN(C)C(=O)CN1CC[C@@H]2O[C@@H](COCc3cccnc3)CC[C@@H]21 | -1.43 |
| CN(C)[C@@H]1CCN(C(=O)Cc2cccs2)[C@H]1Cc1ccncc1 | -8 |
| COc1ccc(CN2C[C@@H]3COC[C@H](N4CCN(C)CC4)[C@@H]3C2)cc1 | -5.19 |
| c1cc(CN2CCOCC3(CCN(CC4CCOCC4)CC3)C2)ccn1 | -7.05 |
